Source: paper PMC3171737 (Journal of medicinal chemistry, 2011)
Read-outs that look alike come from different tables or passages of the source. Each block holds one compound with its values, some of them ahead of it.

Tests used:
[1] = test system: H3K9me2 levels in MDA-MB-231 cells; test: H3K9me2 In-Cell Western; assay type: cell-based
[2] = test system: H3K9me2 levels in HCT116 wt cells; test: H3K9me2 ICW assay, HCT116 wt; assay type: cell-based; details: Homo sapiens, HCT-116, 48 h, read-out: ICW IC50
HCT116 p53−/− cells = test: MTT assay, HCT116 p53−/−; assay type: cell-based; details: Homo sapiens, HCT-116, 48 h, read-out: MTT EC50
[3] = test system: H3K9me2 levels in MCF7 cells; test: H3K9me2 ICW assay, MCF7; assay type: cell-based; details: Homo sapiens, MCF7, 48 h, read-out: ICW IC50
[4] = test system: H3K9me2 levels in 22RV1 cells; test: H3K9me2 ICW assay, 22RV1; assay type: cell-based; details: Homo sapiens, 22Rv1, 48 h, read-out: ICW IC50
HCT116 wt cells = test: MTT assay, HCT116 wt; assay type: cell-based; details: Homo sapiens, HCT-116, 48 h, read-out: MTT EC50
[5] = test system: H3K9me2 levels in PC3 cells; test: H3K9me2 ICW assay, PC3; assay type: cell-based; details: Homo sapiens, PC-3, 48 h, read-out: ICW IC50
MDA-MB-231 cells = test: MTT cell toxicity assay, MDA-MB-231; assay type: cell-based; details: Homo sapiens, MDA-MB-231, 48 h, read-out: MTT EC50
G9a = target: T1, G9a (Homo sapiens, UniProt Q96KQ7); test: G9a SAHH-coupled assay; assay type: biochemical; details: versus compound 5
T1 sequence (Q96KQ7 1-1210): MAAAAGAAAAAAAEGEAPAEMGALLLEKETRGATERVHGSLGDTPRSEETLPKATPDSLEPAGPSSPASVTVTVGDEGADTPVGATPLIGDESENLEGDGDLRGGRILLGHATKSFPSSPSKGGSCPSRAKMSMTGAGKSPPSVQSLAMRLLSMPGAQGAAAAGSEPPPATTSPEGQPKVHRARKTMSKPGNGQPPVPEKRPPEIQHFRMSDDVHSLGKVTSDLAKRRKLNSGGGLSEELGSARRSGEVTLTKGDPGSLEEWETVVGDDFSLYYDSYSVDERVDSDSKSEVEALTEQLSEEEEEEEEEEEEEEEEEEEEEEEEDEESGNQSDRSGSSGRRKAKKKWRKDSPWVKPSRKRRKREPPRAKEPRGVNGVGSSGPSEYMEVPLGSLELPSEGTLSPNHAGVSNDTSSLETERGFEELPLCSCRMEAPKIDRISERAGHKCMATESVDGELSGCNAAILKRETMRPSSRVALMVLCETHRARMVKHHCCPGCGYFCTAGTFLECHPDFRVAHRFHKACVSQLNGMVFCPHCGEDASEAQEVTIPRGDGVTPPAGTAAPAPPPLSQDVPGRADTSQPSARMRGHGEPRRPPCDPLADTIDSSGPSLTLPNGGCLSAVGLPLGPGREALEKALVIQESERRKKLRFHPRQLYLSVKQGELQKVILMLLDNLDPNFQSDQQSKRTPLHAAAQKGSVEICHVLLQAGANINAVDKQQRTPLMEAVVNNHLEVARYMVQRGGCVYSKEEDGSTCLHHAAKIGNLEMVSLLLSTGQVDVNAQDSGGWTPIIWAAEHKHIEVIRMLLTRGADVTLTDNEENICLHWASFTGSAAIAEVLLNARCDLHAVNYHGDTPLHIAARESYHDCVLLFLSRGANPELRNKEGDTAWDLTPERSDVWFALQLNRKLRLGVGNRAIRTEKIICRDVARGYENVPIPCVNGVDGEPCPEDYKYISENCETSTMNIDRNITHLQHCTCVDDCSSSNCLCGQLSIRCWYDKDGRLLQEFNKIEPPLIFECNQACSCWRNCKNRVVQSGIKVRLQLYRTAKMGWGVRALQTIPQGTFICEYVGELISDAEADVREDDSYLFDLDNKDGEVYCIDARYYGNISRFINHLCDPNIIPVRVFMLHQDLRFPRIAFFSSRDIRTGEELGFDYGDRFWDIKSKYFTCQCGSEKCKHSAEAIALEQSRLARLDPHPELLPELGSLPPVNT

[6] = Homo sapiens, MDA-MB-231, 48 h, read-out: Cellular IC50 (Reduction of H3K9me2 (ICW)), Table 2, MDA-MB-231 cells, 48 h
[7] = Homo sapiens, MDA-MB-231, 48 h, read-out: Cellular IC50 (Reduction of H3K9me2 (ICW)), Table 4, MDA-MB-231 cells, 48 h
[8] = read-out: Cellular IC50 (Reduction of H3K9me2 (ICW)), Table 2, MDA-MB-231 cells, 48 h

IC50 ([1]; Homo sapiens, MDA-MB-231, 48 h, read-out: Cellular IC50 (Reduction of H3K9me2 (ICW)), Table 1, MDA-MB-231 cells, 48 h): > 5000 nM
SMILES: COc1cc2c(NC3CCN(C)CC3)nc(N3CCCN(C)CC3)nc2cc1OCCCN(C)C [Compound 2]

SMILES: COc1cc2c(NC3CCN(C(C)C)CC3)nc(C3CCCCC3)nc2cc1OCCCN1CCCC1 [Compound 5, 2-Cyclohexyl-N-(1-isopropylpiperidin-4-yl)-6-methoxy-7-(3-(pyrrolidin-1-yl)propoxy)quinazolin-4-amine]
IC50 [2]: 210 nM
IC50 ([1]; Homo sapiens, MDA-MB-231, 48 h, read-out: Cellular IC50 (Reduction of H3K9me2 (ICW))): 81 nM
IC50 [1, 6]: ≤ 100 nM
IC50 ([1]; Homo sapiens, MDA-MB-231, 48 h, read-out: ICW IC50): 81 nM
EC50 (HCT116 p53−/− cells): 11000 nM
IC50 [3]: 70 nM
IC50 [4]: 48 nM
EC50 (HCT116 wt cells): 11000 nM
IC50 [5]: 59 nM
EC50 (MDA-MB-231 cells): 11000 nM

IC50 [1, 7]: < 60 nM
SMILES: COc1cc2c(NC3CCN(C4CCCCC4)CC3)nc(N3CCCN(C(C)C)CC3)nc2cc1OCCCN1CCCCC1 [Compound 6, N-(1-cyclohexylpiperidin-4-yl)-2-(4-isopropyl-1,4-diazepan-1-yl)-6-methoxy-7-(3-(piperidin-1-yl)propoxy)quinazolin-4-amine]

IC50 [1, 7]: < 60 nM
SMILES: COc1cc2c(NC3CCN(CC4CCCCC4)CC3)nc(N3CCCN(C(C)C)CC3)nc2cc1OCCCN1CCCCC1 [Compound 7, N-(1-(cyclohexylmethyl)piperidin-4-yl)-2-(4-isopropyl-1,4-diazepan-1-yl)-6-methoxy-7-(3-(piperidin-1-yl)propoxy)quinazolin-4-amine]

IC50 [1, 6]: ≤ 100 nM
IC50 [1, 8]: 100 nM
SMILES: COc1cc2c(NC3CCN(C(C)C)CC3)nc(N3CCCN(C4CCCCC4)CC3)nc2cc1OCCCN1CCCC1 [Compound 17d, 2-(4-Cyclohexyl-1,4-diazepan-1-yl)-N-(1-isopropylpiperidin-4-yl)-6-methoxy-7-(3-(pyrrolidin-1-yl)propoxy)quinazolin-4-amine]

IC50 [1, 6]: ≤ 100 nM
SMILES: COc1cc2c(NC3CCN(C(C)C)CC3)nc(N3CCCN(CC4CCCCC4)CC3)nc2cc1OCCCN1CCCC1 [Compound 17e, 2-(4-(Cyclohexylmethyl)-1,4-diazepan-1-yl)-N-(1-isopropylpiperidin-4-yl)-6-methoxy-7-(3-(pyrrolidin-1-yl)propoxy)quinazolin-4-amine]

IC50 [1, 6]: ≤ 100 nM
SMILES: COc1cc2c(NC3CCN(C(C)C)CC3)nc(N3CCCN(Cc4ccccc4)CC3)nc2cc1OCCCN1CCCC1 [Compound 17g, 2-(4-Benzyl-1,4-diazepan-1-yl)-N-(1-isopropylpiperidin-4-yl)-6-methoxy-7-(3-(pyrrolidin-1-yl)propoxy)quinazolin-4-amine]

IC50 [1, 6]: ≤ 100 nM
IC50 [1, 8]: 100 nM
SMILES: COc1cc2c(NC3CCN(C(C)C)CC3)nc(N3CCCCCC3)nc2cc1OCCCN1CCCC1 [Compound 17i, 2-(Azepan-1-yl)-N-(1-isopropylpiperidin-4-yl)-6-methoxy-7-(3-(pyrrolidin-1-yl)propoxy)quinazolin-4-amine]

SMILES: COc1cc2c(NC3CCN(C(C)C)CC3)nc(C3CCCCC3)nc2cc1OCCCN1CCCCC1 [Compound 24a, 2-Cyclohexyl-N-(1-isopropylpiperidin-4-yl)-6-methoxy-7-(3-(piperidin-1-yl)propoxy)quinazolin-4-amine]
Fold lower potency in the G9a biochemical assay compared to compound 5 (G9a): about 10 fold

IC50 [1, 7]: < 60 nM
SMILES: COc1cc2c(NC3CCN(C(C)C)CC3)nc(N3CCCN(C(C)C)CC3)nc2cc1OCCCN1CCCCC1 [Compound 25, 2-(4-Isopropyl-1,4-diazepan-1-yl)-N-(1-isopropylpiperidin-4-yl)-6-methoxy-7-(3-(piperidin-1-yl)propoxy)quinazolin-4-amine]

IC50 [1, 7]: < 60 nM
SMILES: COc1cc2c(NC3CCN(C4CCCCC4)CC3)nc(N3CCCN(C)CC3)nc2cc1OCCCN1CCCCC1 [Compound 26, N-(1-cyclohexylpiperidin-4-yl)-6-methoxy-2-(4-methyl-1,4-diazepan-1-yl)-7-(3-(piperidin-1-yl)propoxy)quinazolin-4-amine]
